# From patent publication US5192784A, “Etanidazole injectable solution” (Du Pont Merck Pharmaceutical Company, priority 1992, dated 1993)
# What was measured:
# [1] = physchem
# Procedure: Solubility studies were carried out by placing excess etanidazole into a suitable container and rotating end-to-end for twenty four hours at 25° C. The suspension was passed through a 0.2μ filter with the first portion discarded to ensure saturation of the filter. An aliquot of the filtrate was diluted and analyzed by HPLC and the remainder of the filtrate was employed for pH determination.
# [2] = Chemical stability (hydrolysis kinetics) of etanidazole in buffered solutions at 80° C.; assay type: physicochemical; details: for kobs, observed first-order rate constant: mean, n = 3
# Procedure: The k values shown in Tables 1-5 and FIG. 1 should be multipled by a factor of 2.303 to provide the actual k value.
# The chemical stability of etanidazole was evaluated in solutions of varying composition stored at 80° C. Etanidazole was placed into suitable containers and sufficient buffer was added to result in a 1 mg/ml solution. A constant ionic strength of 0.3 was maintained with potassium chloride. All solutions were prepared in triplicate. The solution was divided into 2 ml sealed glass vials and was placed into cardboard storage boxes to protect the compound from light. At appropriate intervals, samples were removed from the stability chamber and cooled to room temperature. An aliquot of the sample was diluted with mobile phase containing internal standard prior to HPLC analysis. For those pH conditions where degradation was rapid, the sample aliquot was immediately quenched to neutral pH and room temperature.
# Data were analyzed using methods as described by Martin et al. in "Physical Pharmacy", 3rd ed, pp 352-395 (1983).
# In the intermediate pH range where buffers were employed, the observed first-order rate constant can be defined at any given pH with the following equation;
# […] [H+]+ko +kOH- [OH-]+kB [BT ]
# where kH+ and kOH- are the second-order specific acid and specifiic base catalysis rate constants, respectively kB is the second-order rate constant for the catalysis due to the buffer, and [BT ] is the total buffer concentration. Plotting kobs vs [BT ] yields a slope of kB and a y-intercept of kH+ [H+]+ko +kOH- [OH-], the observed rate constant extrapolated to zero buffer concentration (k'). The observed rate constant extrapolated to zero buffer concentration (k') are used to generate the pH-rate profile (FIG. 1).
# The buffer systems permit pH control through the equilibrium of their acidic and basic forms. Utilizing these equilibria, the rate constants for the individual buffer species may be calculated. In the acetate buffers, the second-order rate constant for the catalysis due to the acetate buffer is defined as follows;
# […]
# where ^f CH3 COOH is the fraction of the acetate buffer in the neutral form, ^k (CH3 COOH) is the second-order rate constant for the catalysis due to the acetic acid species, ^f CH3 COO- is the fraction of the acetate buffer in the ionized form and ^k CH3 COO- is the second-order rate constant for the catalysis due to the acetate anion. Employing the same buffer for various pH conditions permits the determination of the second-order rate constants for the various species (Table 3).
# [3] = Crystal formation on storage at 4° C., autoclaved vs non-autoclaved (reheated samples); assay type: physicochemical
# Procedure: Sixteen samples of etanidazole solutions at various pHs, which contained crystals, were heated in a 56° C. water bath for 1 hour to dissolve the crystals. After heating, the samples were divided evenly.
# [4] = Effect of autoclaving on crystal formation at 4° C. over 43 days, pH 3.0, 3.5 and 4.0; assay type: physicochemical; details: for samples that developed crystals: 50 mg/ml
# Procedure: Further studies were done in which etanidazole (50 mg/ml) solutions at pH 3.0, 3.5, and 4.0 were prepared and the effect of autoclaving was evaluated. At pH 3.0, 0 of 48 autoclaved samples and 0 of 48 non-autoclaved samples developed crystals when stored at 4° C. over 43 days. At pH 3.5, 0 of 49 autoclaved samples developed crystals, and 3 of 50 non-autoclaved samples developed crystals when stored at 4° C. over 43 days. At pH 4.0, 0 of 50 autoclaved samples developed crystals when stored at 4° C. for 43 days, but 1 of 50 non-autoclaved samples developed crystals.
smiles,measurement,setting,value
O=C(Cn1ccnc1[N+](=O)[O-])NCCO [Etanidazole],solubility,[1]; initial dissolved concentration (before crystals appeared),> 150 mg/mL
same,solubility at 24 h,[1]; solubility,59.2 to 71.7 mg/mL
same,solubility at 24 h,"[1]; water, pH 6.5, water, solubility in water",68.1 mg/mL
same,"kobs, observed first-order rate constant","[2]; 0.01M HCl pH 2.2, 80° C.",0.00824 day⁻¹
same,"kobs, observed first-order rate constant","[2]; 0.013M Citrate pH 6.5, 80° C.",0.0106 day⁻¹
same,"kobs, observed first-order rate constant","[2]; 0.02M Citrate pH 5.5, 80° C.",0.00843 day⁻¹
same,"kobs, observed first-order rate constant","[2]; 0.025M Phosphate pH 6.5, 80° C.",0.0195 day⁻¹
same,"kobs, observed first-order rate constant","[2]; 0.03M Citrate pH 6.5, 80° C.",0.0119 day⁻¹
same,"kobs, observed first-order rate constant","[2]; 0.05M Acetate pH 4.0, 80° C.",0.00119 day⁻¹
same,"kobs, observed first-order rate constant","[2]; 0.05M Acetate pH 5.0, 80° C.",0.00386 day⁻¹
same,"kobs, observed first-order rate constant","[2]; 0.05M Borate pH 9.2, 80° C.",0.0333 day⁻¹
same,"kobs, observed first-order rate constant","[2]; 0.05M Citrate pH 3.0, 80° C.",0.00575 day⁻¹
same,"kobs, observed first-order rate constant","[2]; 0.05M Citrate pH 4.5, 80° C.",0.00336 day⁻¹
same,"kobs, observed first-order rate constant","[2]; 0.05M Citrate pH 5.5, 80° C.",0.00957 day⁻¹
same,"kobs, observed first-order rate constant","[2]; 0.05M Phosphate pH 6.5, 80° C.",0.0135 day⁻¹
same,"kobs, observed first-order rate constant","[2]; 0.05M Phosphate pH 7.4, 80° C.",0.0168 day⁻¹
same,"kobs, observed first-order rate constant","[2]; 0.065M Citrate pH 6.5, 80° C.",0.0132 day⁻¹
same,"kobs, observed first-order rate constant","[2]; 0.1M Acetate pH 4.0, 80° C.",0.00185 day⁻¹
same,"kobs, observed first-order rate constant","[2]; 0.1M Acetate pH 5.0, 80° C.",0.00516 day⁻¹
same,"kobs, observed first-order rate constant","[2]; 0.1M Borate pH 9.2, 80° C.",0.0382 day⁻¹
same,"kobs, observed first-order rate constant","[2]; 0.1M Citrate pH 3.0, 80° C.",0.00882 day⁻¹
same,"kobs, observed first-order rate constant","[2]; 0.1M Citrate pH 4.5, 80° C.",0.00587 day⁻¹
same,"kobs, observed first-order rate constant","[2]; 0.1M Citrate pH 5.5, 80° C.",0.0101 day⁻¹
same,"kobs, observed first-order rate constant","[2]; 0.1M HCl pH 1.0, 80° C.",0.0961 day⁻¹
same,"kobs, observed first-order rate constant","[2]; 0.1M NaOH pH 12.6, 80° C.",13.1 day⁻¹
same,"kobs, observed first-order rate constant","[2]; 0.1M Phosphate pH 6.5, 80° C.",0.0149 day⁻¹
same,"kobs, observed first-order rate constant","[2]; 0.1M Phosphate pH 7.4, 80° C.",0.0187 day⁻¹
same,"kobs, observed first-order rate constant","[2]; 0.135M Phosphate pH 7.4, 80° C.",0.0183 day⁻¹
same,"kobs, observed first-order rate constant","[2]; 0.18M Citrate pH 4.5, 80° C.",0.00789 day⁻¹
same,"kobs, observed first-order rate constant","[2]; 0.25M Acetate pH 4.0, 80° C.",0.00342 day⁻¹
same,"kobs, observed first-order rate constant","[2]; 0.25M Acetate pH 5.0, 80° C.",0.00801 day⁻¹
same,"kobs, observed first-order rate constant","[2]; 0.25M Borate pH 9.2, 80° C.",0.0596 day⁻¹
same,"kobs, observed first-order rate constant","[2]; 0.25M Citrate pH 3.0, 80° C.",0.0197 day⁻¹
same,"kobs, observed first-order rate constant","[2]; 0.3M HCl pH 0.62, 80° C.",0.263 day⁻¹
same,"kobs, observed first-order rate constant","[2]; 0.3M NaOH pH 13.1, 80° C.",52.9 day⁻¹
same,"k', first-order rate constant extrapolated to zero buffer concentration","[2]; Acetate pH 4.0, 80° C.",0.000688 day⁻¹
same,"kB, second-order rate constant for the buffer catalysis","[2]; Acetate pH 4.0, 80° C.",1.27e-07 M⁻¹ s⁻¹
same,"k', first-order rate constant extrapolated to zero buffer concentration","[2]; Acetate pH 5.0, 80° C.",0.00296 day⁻¹
same,"kB, second-order rate constant for the buffer catalysis","[2]; Acetate pH 5.0, 80° C.",2.35e-07 M⁻¹ s⁻¹
same,"kB, second-order rate constant for the buffer species","[2]; Acetic acid, 80° C.",9.41e-08 M⁻¹ s⁻¹
same,"kB, second-order rate constant for the buffer species","[2]; Acetic^-1, 80° C.",3.17e-07 M⁻¹ s⁻¹
same,"k', first-order rate constant extrapolated to zero buffer concentration","[2]; Borate pH 9.2, 80° C.",0.0258 day⁻¹
same,"kB, second-order rate constant for the buffer catalysis","[2]; Borate pH 9.2, 80° C.",1.55e-06 M⁻¹ s⁻¹
same,"k', first-order rate constant extrapolated to zero buffer concentration","[2]; Citrate pH 3.0, 80° C.",0.00204 day⁻¹
same,"kB, second-order rate constant for the buffer catalysis","[2]; Citrate pH 3.0, 80° C.",8.15e-07 M⁻¹ s⁻¹
same,"k', first-order rate constant extrapolated to zero buffer concentration","[2]; Citrate pH 4.5, 80° C.",0.00197 day⁻¹
same,"kB, second-order rate constant for the buffer catalysis","[2]; Citrate pH 4.5, 80° C.",3.94e-07 M⁻¹ s⁻¹
same,"k', first-order rate constant extrapolated to zero buffer concentration","[2]; Citrate pH 5.5, 80° C.",0.00824 day⁻¹
same,"kB, second-order rate constant for the buffer catalysis","[2]; Citrate pH 5.5, 80° C.",2.29e-07 M⁻¹ s⁻¹
same,"k', first-order rate constant extrapolated to zero buffer concentration","[2]; Citrate pH 6.5, 80° C.",0.0102 day⁻¹
same,"kB, second-order rate constant for the buffer catalysis","[2]; Citrate pH 6.5, 80° C.",5.57e-07 M⁻¹ s⁻¹
same,"kB, second-order rate constant for the buffer species","[2]; Citrate^-3, 80° C.",9.4e-07 M⁻¹ s⁻¹
same,"kB, second-order rate constant for the buffer species","[2]; Citric Acid, 80° C.",1.03e-06 M⁻¹ s⁻¹
same,"kB, second-order rate constant for the buffer species","[2]; Dihydrogen citrate^-1, 80° C.",5.3e-07 M⁻¹ s⁻¹
same,"kB, second-order rate constant for the buffer species","[2]; Dihydrogen phosphate^-1, 80° C.",3.95e-07 M⁻¹ s⁻¹
same,"kB, second-order rate constant for the buffer species","[2]; Hydrogen citrate^-2, 80° C.",8.23e-08 M⁻¹ s⁻¹
same,"kB, second-order rate constant for the buffer species","[2]; Hydrogen phosphate^-2, 80° C.",1.17e-07 M⁻¹ s⁻¹
same,"k', first-order rate constant extrapolated to zero buffer concentration","[2]; Phosphate pH 6.5, 80° C.",0.0119 day⁻¹
same,"kB, second-order rate constant for the buffer catalysis","[2]; Phosphate pH 6.5, 80° C.",3.5e-07 M⁻¹ s⁻¹
same,"k', first-order rate constant extrapolated to zero buffer concentration","[2]; Phosphate pH 7.4, 80° C.",0.0161 day⁻¹
same,"kB, second-order rate constant for the buffer catalysis","[2]; Phosphate pH 7.4, 80° C.",2.2e-07 M⁻¹ s⁻¹
same,primary route of degradation,"[2]; analysis of degradation product, 80° C.",through the hydrolysis of the amide linkage
same,buffer catalysis of degradation,"[2]; citrate and acetate at the pH minimum, 80° C.","Citrate and acetate were both catalytic at the pH minimum, with citrate being a stronger catalyst than acetate"
same,pH at which overall rate constant was minimum,"[2]; hydrolysis, 80° C.",approximately 4
same,kinetics of hydrolysis,"[2]; pH range of 0.6 to 12.6, 80° C.",apparent first-order kinetics
same,effect of concentration and ionic strength on stability,"[2]; summary, 80° C.",negligible effects on the stability
same,crystalline particulates on storage,"[3]; 50 mg/ml, aqueous buffer, 4° C.",occasionally develop crystalline particulates
same,non-autoclaved samples containing crystals again,"[3]; various pHs, heated 56° C. 1 hour, then 4 days at 4° C.",3 of 8
same,samples that developed crystals,"[4]; pH 3.0, autoclaved, 4° C. over 43 days",0 of 48
same,samples that developed crystals,"[4]; pH 3.0, non-autoclaved, 4° C. over 43 days",0 of 48
same,samples that developed crystals,"[4]; pH 3.5, autoclaved, 4° C. over 43 days",0 of 49
same,samples that developed crystals,"[4]; pH 3.5, non-autoclaved, 4° C. over 43 days",3 of 50
same,samples that developed crystals,"[4]; pH 4.0, autoclaved, 4° C. for 43 days",0 of 50
same,samples that developed crystals,"[4]; pH 4.0, non-autoclaved, 4° C., 43 days",1 of 50
same,effect of autoclaving on crystal formation,[4]; subsequent storage at 4° C.,autoclaving prevents the formation of crystals
